Test results as given in patent US11891634B2, “PDE5A destabilizing domains” (The Board of Trustees of the Leland Stanford Junior …, priority 2017, dated 2024).

Columns and labels:
Format in all cases: cell-based, human
[1] = system: HCT116 cells transduced with the constructs; experiment: Response to Sildenafil, GFP expression by flow cytometry in HCT116; conditions: for MFI / Stabilization ratio with Sildenafil: 48 hours, HCT116; for Basal expression: Table 26, MFI with DMSO / parental HCT116, Sildenafil experiment
Experimental: Similar experiments were performed in HCT116 cells using sildenafil. The above-mentioned DDs were cloned as AcGFP fusion into pELNS vector carrying mCherry marker and packaged in lentiviral vectors. HCT116 cells were transduced with the constructs and stable integrants were selected by cell sorting using mCherry marker. Cells were treated with sildenafil at the following μM concentrations: 0.01, 0.02, 0.05, 0.14, 0.41, 1.23, 3.7, 11.11, 33.33, and 100 for a duration of 48 hours. The fluorescence was analyzed by flow cytometry and the mean fluorescence intensity was calculated for all samples. […] The stabilization ratios are shown in Table 24 and Table 25 and the basal expression is show in Table 26.

[2] = system: HCT 116 cells transduced with the PDE5A DD derived GFP constructs; experiment: Response to Tadalafil, GFP expression by FACS in HCT116
Experimental: (§1) PDE5AN (#3) was cloned as AcGFP fusion into pELNS vector carrying mCherry marker and packaged in lentiviral vectors. HCT116 cells were transduced with the construct and stable integrants were selected by cell sorting using mCherry marker. Cells were treated with vehicle (dimethyl sulfoxide, DMSO) or varying doses of Tadalafil (TDF) for 48 hrs with doses ranging from 0.01 μM to 100 μM. Following the treatment, cells were analyzed for GFP expression using FACS. Basal expression was calculated as the ratio of GFP signal in the absence of ligand for a given cell line to auto fluorescence of parental HCT-116 cells. Stabilization ratio was calculated as the ratio of the GFP signal observed in the presence of stabilizing ligand to the signal from the same cell line in the absence of ligand.
HCT 116 cells transduced with the PDE5A DD derived GFP constructs were also tested with increasing doses of Tadalafil. The HCT116 cells were incubated for 48 hours with Tadalafil starting at dose 0.01 μM to 100 μM. The GFP intensity of the Tadalafil treated samples was compared to the parental untransduced HCT116 and DMSO treated cells for each construct. The mean fluorescence intensity was calculated for each sample and used to calculate the stabilization ratios as well as the basal expression for each construct. The stabilization ratios are shown in Table 19 and Table 20 and the basal expression is show in Table 21.

[3] = system: HCT 116 cells transduced with the PDE5A DD derived GFP constructs; experiment: Response to Vardenafil, GFP expression by FACS in HCT116
Experimental: as §1, with “Mutations were created in PDE5A (535-860) catalytic domain using site directed mutagenesis and the mutants were” for “PDE5AN (#3) was”, “constructs” for “construct”, “10 μM Vardenafil (VDF)” for “varying doses of Tadalafil (TDF)”, “hours.” for “hrs with doses ranging from 0.01 μM to 100 μM.”
HCT 116 cells transduced with the PDE5A DD derived GFP constructs were also tested with increasing doses of Vardenafil. The HCT116 cells were incubated for 48 hours with Vardenafil starting at a dose of 0.002 μM to 30 μM. The GFP intensity of the Vardenafil treated samples was compared to the parental untransduced HCT116 and DMSO treated cells for each construct. The mean fluorescence intensity was calculated for each sample and used to calculate the stabilization ratios as well as the basal expression for each construct. The GFP expression was measured using flow cytometry and the mean fluorescence intensity (MFI) was calculated for each sample. The stabilization ratios are shown in Table 13 and Table 14 and the basal expression is show in Table 15.

[4] = DMSO (no Tadalafil), 48 hours, HCT116
[5] = Tadalafil 0.01 μM vs DMSO, 48 hours, HCT116
[6] = Tadalafil 0.01 μM, 48 hours, HCT116
[7] = Tadalafil 0.02 μM vs DMSO, 48 hours, HCT116
[8] = Tadalafil 0.02 μM, 48 hours, HCT116
[9] = Tadalafil 0.05 μM vs DMSO, 48 hours, HCT116
[10] = Tadalafil 0.05 μM, 48 hours, HCT116
[11] = Tadalafil 0.14 μM vs DMSO, 48 hours, HCT116
[12] = Tadalafil 0.14 μM, 48 hours, HCT116
[13] = Tadalafil 0.41 μM vs DMSO, 48 hours, HCT116
[14] = Tadalafil 0.41 μM, 48 hours, HCT116
[15] = Tadalafil 1.23 μM vs DMSO, 48 hours, HCT116
[16] = Tadalafil 1.23 μM, 48 hours, HCT116
[17] = Tadalafil 3.7 μM vs DMSO, 48 hours, HCT116
[18] = Tadalafil 3.7 μM, 48 hours, HCT116
[19] = Tadalafil 11.11 μM vs DMSO, 48 hours, HCT116
[20] = Tadalafil 11.11 μM, 48 hours, HCT116
[21] = Tadalafil 33.33 μM vs DMSO, 48 hours, HCT116
[22] = Tadalafil 33.33 μM, 48 hours, HCT116
[23] = Tadalafil 100 μM vs DMSO, 48 hours, HCT116
[24] = Tadalafil 100 μM, 48 hours, HCT116
[25] = DMSO (no Vardenafil), 48 hours, HCT116
[26] = Vardenafil 0.002 μM vs DMSO, 48 hours, HCT116
[27] = Vardenafil 0.002 μM, 48 hours, HCT116
[28] = Vardenafil 0.005 μM, 48 hours, HCT116
[29] = Vardenafil 0.014 μM vs DMSO, 48 hours, HCT116
[30] = Vardenafil 0.014 μM, 48 hours, HCT116
[31] = Vardenafil 0.041 μM vs DMSO, 48 hours, HCT116
[32] = Vardenafil 0.041 μM, 48 hours, HCT116
[33] = Vardenafil 0.123 μM vs DMSO, 48 hours, HCT116
[34] = Vardenafil 0.123 μM, 48 hours, HCT116
[35] = Vardenafil 0.370 μM vs DMSO, 48 hours, HCT116
[36] = Vardenafil 0.370 μM, 48 hours, HCT116
[37] = Vardenafil 1.111 μM vs DMSO, 48 hours, HCT116
[38] = Vardenafil 1.111 μM, 48 hours, HCT116
[39] = Vardenafil 3.333 μM vs DMSO, 48 hours, HCT116
[40] = Vardenafil 3.333 μM, 48 hours, HCT116
[41] = Vardenafil 10 μM vs DMSO, 48 hours, HCT116
[42] = Vardenafil 10 μM, 48 hours, HCT116
[43] = Vardenafil 30 μM, 48 hours, HCT116

Substance: PDE5AC (#28): AcGFP fused to C-terminal DD 535-860 of PDE5A (Q589R, K591E, N609H, D764V), SEQ ID NO. 25
- MFI ([1]; DMSO (no Sildenafil)): 13208
- Stabilization ratio with Sildenafil ([1]; Sildenafil 0.01 μM vs DMSO): 1.1
- MFI ([1]; Sildenafil 0.01 μM): 14613
- Stabilization ratio with Sildenafil ([1]; Sildenafil 0.02 μM vs DMSO): 1.2
- MFI ([1]; Sildenafil 0.02 μM): 16502
- Stabilization ratio with Sildenafil ([1]; Sildenafil 0.05 μM vs DMSO): 1.3
- MFI ([1]; Sildenafil 0.05 μM): 17801
- Stabilization ratio with Sildenafil ([1]; Sildenafil 0.14 μM vs DMSO): 2.0
- MFI ([1]; Sildenafil 0.14 μM): 26694
- Stabilization ratio with Sildenafil ([1]; Sildenafil 0.41 μM vs DMSO): 3.3
- MFI ([1]; Sildenafil 0.41 μM): 43862
- Stabilization ratio with Sildenafil ([1]; Sildenafil 1.23 μM vs DMSO): 5.0
- MFI ([1]; Sildenafil 1.23 μM): 65762
- Stabilization ratio with Sildenafil ([1]; Sildenafil 3.70 μM vs DMSO): 6.3
- MFI ([1]; Sildenafil 3.70 μM): 83657
- Stabilization ratio with Sildenafil ([1]; Sildenafil 11.11 μM vs DMSO): 6.1
- MFI ([1]; Sildenafil 11.11 μM): 80269
- Stabilization ratio with Sildenafil ([1]; Sildenafil 33.33 μM vs DMSO): 6.3
- MFI ([1]; Sildenafil 33.33 μM): 83663
- Stabilization ratio with Sildenafil ([1]; Sildenafil 100.00 μM vs DMSO): 6.1
- Basal expression [1]: 10.3
- MFI [2, 4]: 15004
- Basal expression ([2]; Table 21, MFI with DMSO / parental HCT116, Tadalafil experiment): 11.72
- Stabilization ratio with Tadalafil [2, 5]: 0.9
- MFI [2, 6]: 14073
- Stabilization ratio with Tadalafil [2, 7]: 1.0
- MFI [2, 8]: 14513
- Stabilization ratio with Tadalafil [2, 9]: 1.0
- MFI [2, 10]: 15730
- Stabilization ratio with Tadalafil [2, 11]: 1.2
- MFI [2, 12]: 18316
- Stabilization ratio with Tadalafil [2, 13]: 1.9
- MFI [2, 14]: 28462
- Stabilization ratio with Tadalafil [2, 15]: 3.0
- MFI [2, 16]: 44739
- Stabilization ratio with Tadalafil [2, 17]: 4.6
- MFI [2, 18]: 69430
- Stabilization ratio with Tadalafil [2, 19]: 5.7
- MFI [2, 20]: 85998
- Stabilization ratio with Tadalafil [2, 21]: 6.3
- MFI [2, 22]: 95189
- Stabilization ratio with Tadalafil [2, 23]: 6.5
- MFI [2, 24]: 97016
- MFI [3, 25]: 13817
- Basal (DMSO/Parental) ([3]; Table 10, GFP signal without ligand / auto fluorescence of parental HCT-116): 10.4
- Basal ([3]; Table 15, MFI with DMSO / parental HCT116, Vardenafil experiment): 7.07
- Stabilization ratio with Vardenafil [3, 26]: 1.1
- MFI [3, 27]: 15437
- MFI [3, 28]: 19446
- Stabilization ratio with Vardenafil [3, 29]: 2.1
- MFI [3, 30]: 29314
- Stabilization ratio with Vardenafil [3, 31]: 3.3
- MFI [3, 32]: 45804
- Stabilization ratio with Vardenafil [3, 33]: 5.4
- MFI [3, 34]: 74153
- Stabilization ratio with Vardenafil [3, 35]: 5.9
- MFI [3, 36]: 81663
- Stabilization ratio with Vardenafil [3, 37]: 6.5
- MFI [3, 38]: 89426
- Stabilization ratio with Vardenafil [3, 39]: 6.7
- MFI [3, 40]: 92290
- Stabilization ratio with Vardenafil [3, 41]: 6.3
- MFI [3, 42]: 86985
- Stabilization ratio with Vardenafil ([3]; Vardenafil 30 μM vs DMSO, 48 hours, HCT116): 6.7
- MFI [3, 43]: 93145

Substance: PDE5AN (#3): N-terminal DD 535-860 of PDE5A (Q589R, K633E, T712S, K852E, K795E), SEQ ID NO. 66, fused to AcGFP
- MFI ([1]; DMSO (no Sildenafil)): 9835
- Stabilization ratio with Sildenafil ([1]; Sildenafil 0.01 μM vs DMSO): 1.0
- MFI ([1]; Sildenafil 0.01 μM): 9888
- Stabilization ratio with Sildenafil ([1]; Sildenafil 0.02 μM vs DMSO): 1.0
- MFI ([1]; Sildenafil 0.02 μM): 10157
- Stabilization ratio with Sildenafil ([1]; Sildenafil 0.05 μM vs DMSO): 1.0
- MFI ([1]; Sildenafil 0.05 μM): 9952
- Stabilization ratio with Sildenafil ([1]; Sildenafil 0.14 μM vs DMSO): 1.1
- MFI ([1]; Sildenafil 0.14 μM): 10475
- Stabilization ratio with Sildenafil ([1]; Sildenafil 0.41 μM vs DMSO): 1.3
- MFI ([1]; Sildenafil 0.41 μM): 12302
- Stabilization ratio with Sildenafil ([1]; Sildenafil 1.23 μM vs DMSO): 1.7
- MFI ([1]; Sildenafil 1.23 μM): 16826
- Stabilization ratio with Sildenafil ([1]; Sildenafil 3.70 μM vs DMSO): 2.8
- MFI ([1]; Sildenafil 3.70 μM): 27542
- Stabilization ratio with Sildenafil ([1]; Sildenafil 11.11 μM vs DMSO): 5.4
- MFI ([1]; Sildenafil 11.11 μM): 52641
- Stabilization ratio with Sildenafil ([1]; Sildenafil 33.33 μM vs DMSO): 8.7
- MFI ([1]; Sildenafil 33.33 μM): 85509
- MFI ([1]; Sildenafil 100.00 μM): 103938
- Basal expression [1]: 7.6
- MFI [2, 4]: 6944
- expression of GFP (MFI) with increasing doses of Tadalafil ([2]; Tadalafil 0.01 μM to 100 μM, 48 hours, HCT116): Tadalafil dose dependent increase in the MFI
- Stabilization ratio with Tadalafil [2, 5]: 1.0
- MFI [2, 6]: 6781
- Stabilization ratio with Tadalafil [2, 7]: 1.0
- MFI [2, 8]: 6685
- Stabilization ratio with Tadalafil [2, 9]: 1.0
- MFI [2, 10]: 7013
- Stabilization ratio with Tadalafil [2, 11]: 1.0
- MFI [2, 12]: 6988
- Stabilization ratio with Tadalafil [2, 13]: 1.1
- MFI [2, 14]: 7648
- Stabilization ratio with Tadalafil [2, 15]: 1.3
- MFI [2, 16]: 8973
- Stabilization ratio with Tadalafil [2, 17]: 2.0
- MFI [2, 18]: 14097
- Stabilization ratio with Tadalafil [2, 19]: 3.8
- MFI [2, 20]: 26560
- Stabilization ratio with Tadalafil [2, 21]: 7.2
- MFI [2, 22]: 49889
- Stabilization ratio with Tadalafil [2, 23]: 9.9
- MFI [2, 24]: 68532
- MFI [3, 25]: 8934
- Stabilization ratio ([3]; Table 10, 10 μM Vardenafil vs DMSO, 48 hours, HCT116): stabilization ratios similar to those observed for sildenafil
- Stabilization ratio with Vardenafil [3, 26]: 1.0
- MFI [3, 27]: 8767
- MFI [3, 28]: 9620
- Stabilization ratio with Vardenafil [3, 29]: 1.2
- MFI [3, 30]: 10487
- Stabilization ratio with Vardenafil [3, 31]: 1.6
- MFI [3, 32]: 14086
- Stabilization ratio with Vardenafil [3, 33]: 2.3
- MFI [3, 34]: 20568
- Stabilization ratio with Vardenafil [3, 35]: 4.1
- MFI [3, 36]: 36786
- Stabilization ratio with Vardenafil [3, 37]: 7.4
- MFI [3, 38]: 66543
- Stabilization ratio with Vardenafil [3, 39]: 11.1
- MFI [3, 40]: 98986
- Stabilization ratio with Vardenafil [3, 41]: 13.4
- MFI [3, 42]: 119591
- MFI [3, 43]: 131667
